# Entries after “also recorded” stand apart in the source; their conditions may differ.
# What was measured:
# [1] = test system: gingival inflammation; experiment: Clinical observation of gingival inflammation after delmopinol rinsing; type: in vivo, human; details: one patient, 0.2% w/v rinse once daily for 14 days
# Text: (§1) In this example delmopinol was used as a rinse to treat a patient who had been cared for over a 2-year period. They had been diagnosed with Morbus Crohn (Crohn's Disease) and with oral complications presenting as severe gingival lesions and swollen gingiva. They had been treated with antibiotics (Zithromax) in the past to control their oral infections and routinely used Chlorhexidine 0.12% rinse solution to control the recolonization of pathogens. Chlorhexidine is used routinely for the control of gingival infection/inflammations as an adjunct to other oral hygiene measures. There are, however side-effects with Chlorhexidine, i.e. staining of teeth, loss of taste and a burning sensation. The alcohol content in the Chlorhexidine solution may also cause some problems for patients. The potential burning sensation was in this case problematic and the patient was not compliant with Chlorhexidine rinsing. The treatment routine was changed and they were asked to rinse with 0.2% w/v delmopinol once daily for 14 days (instead of chlorhexidine). They had been given a professional cleaning of their teeth prior to rinsing with Delmopinol but no systemic antibiotics were prescribed. Zithromax was used 6 months prior the current treatment. The following clinical observations were made: 2.
# [2] = test system: Treponema denticola; experiment: Level of key pathogen in sub-gingival samples; type: in vivo; details: sub-gingival samples after 14 day rinse; FIG. 2
# Text: (§2) FIG. 2 illustrates the reduction of Treponema denticola and Aggregatibacter actinomycetemcomitans after the 14 day course of delmopinol treatment. The treatment routine was changed and they were asked to rinse with 0.2% w/v delmopinol once daily for 14 days (instead of chlorhexidine). They had been given a professional cleaning of their teeth prior to rinsing with Delmopinol but no systemic antibiotics were prescribed. Zithromax was used 6 months prior the current treatment. In addition, a reduction of some key pathogens were found.
# [3] = test system: Aggregatibacter actinomycetemcomitans; experiment: Level of key pathogen in sub-gingival samples; type: in vivo; details: sub-gingival samples after 14 day rinse; FIG. 2
# Text: as §2
# [4] = test system: total bacterial load from sub-gingival samples; experiment: Total bacterial load in sub-gingival samples from four sub-gingival pockets; type: in vivo, human; details: pockets 13, 23, 37 and 42; after 2 week rinse vs before; FIG. 1
# Text: FIG. 1 illustrates the sub-gingival reduction in bacterial load, in four selected sub-gingival pockets, after a 14 day course of delmopinol rinsing (once daily); and The treatment routine was changed and they were asked to rinse with 0.2% w/v delmopinol once daily for 14 days (instead of chlorhexidine). They had been given a professional cleaning of their teeth prior to rinsing with Delmopinol but no systemic antibiotics were prescribed. Zithromax was used 6 months prior the current treatment.
# [5] = test system: Porphyromonas gingivalis; experiment: Level of key pathogen in sub-gingival samples; type: in vivo; details: sub-gingival samples after 14 day rinse
# Text: as §2, with “The” for “FIG. 2 illustrates the reduction of Treponema denticola and Aggregatibacter actinomycetemcomitans after the 14 day course of delmopinol treatment. The”
# [6] = test system: Tannerella forsythia; experiment: Level of key pathogen in sub-gingival samples; type: in vivo; details: sub-gingival samples after 14 day rinse
# Text: as §2, with “The” for “FIG. 2 illustrates the reduction of Treponema denticola and Aggregatibacter actinomycetemcomitans after the 14 day course of delmopinol treatment. The”
# [7] = human, in vivo
# Text: as §1, with “1.” for “2.”
smiles,measurement,setting,value
"CCCC(CCC)CCCC1COCCN1CCO (stereo not shown) [delmopinol, 3-(4-propyl-heptyl)-4-(2-hydroxyethyl)morpholine]","extent of gingival inflammation (bleeding on probing, gingival swelling, ulcerations)",[1],clinically reduced
same,level of Treponema denticola,[2],significantly reduced
same,level of Aggregatibacter actinomycetemcomitans,[3],significantly reduced; also recorded: eliminated
same,total bacterial load from sub-gingival samples,[4],significant reduction
same,level of Porphyromonas gingivalis,[5],not reduced
same,level of Tannerella forsythia,[6],not reduced
same,"side-effects reported by the patient (staining, burning sensation)",[7],no staining or burning sensation

# Reference: patent publication US20080287443A1, “Treatment of Subgingival Pocket Infections” (priority 2005, published 2008)
